Test [1] addresses 5HT7 receptor (Homo sapiens, UniProt P34969). As to conditions: statement in the definitions; cited from earlier work.
Test [2] concerns the target T1, Cloned Human Serotonin Receptor, Subtype 7 (h5HT7) (Homo sapiens, UniProt P34969).
T1 construct: purchased PerkinElmer 6120512; host or cells: CHO cells
Kind of test: Radioligand binding 5HT7. On the procedure:
Radioligand binding assays were performed using the Cloned Human Serotonin Receptor, Subtype 7 (h5HT7), expressed in CHO cells, coated on Flashplate (Basic FlashPlate Cat.: SMP200) from PerkinElmer (Cat.: 6120512). The protocol assay was essentially the recommended protocol in the Technical Data Sheet by PerkinEmer Life and Analytical Sciences. The Mass membrane protein/well was typically 12 μg and the Receptor/well was about 9-10 fmoles. The Flashplate were let equilibrate at room temperature for one hour before the addition of the components of the assay mixture. The binding buffer was: 50 mM Tris-HCl, pH 7.4, containing 10 mM MgCl2, 0.5 mM EDTA and 0.5% BSA. The radioligand was [^125I]LSD at a final concentration of 0.82 nM. Nonspecific binding was determined with 50 μM of Clozapine. The assay volume was 25 μl. TopSeal-A were applied onto Flashplate microplates and they were incubated at room temperature for 240 minutes in darkness. The radioactivity were quantified by liquid scintillation spectrophotometry (Wallac 1450 Microbeta Trilux) with a count delay of 4 minutes prior to counting and a counting time of 30 seconds per well. Competition binding data were analyzed by using the LIGAND program (Munson and Rodbard, LIGAND: A versatile, computerized approach for characterization of ligand-binding systems. Anal. Biochem. 107: 220-239, 1980) and assays were performed in triplicate determinations for each point.

For test [3], the system named is Male CD1 mice. In words: Tail Flick Test. The format is in vivo.
For test [4], the target named is 5-HT6 (Homo sapiens, UniProt P50406). In words: 5-HT6 inhibition. To be noted: 10^−7M; as dihydrochloride; read-out: 5-HT6 inhib. (10^−7M) (%). It counts as binding.
Test [5] deals with Male CD1 mice. To be noted: day 5; morphine 4 mg/kg alone (vs Non-Tolerant) or + Chemical Example 1 10 mg/kg (vs morphine only); FIG. 12.
Experimental: Briefly, the animals (male CD1 mice) were restrained in a Plexiglas tube and placed on the tail flick apparatus (LI 7100, Letica, S. A., Spain). A noxious beam of light was focussed on the tail, and the tail flick latency was recorded automatically to the nearest 0.1 s. The intensity of the radiant heat source was adjusted to yield baseline latencies between 2 and 3 s; this intensity was never changed and any animal whose baseline latency was outside the pre-established limits was excluded from the experiments. In order to minimise injury in the animals, a cut-off time of 10 s was used. The animals received an s.c. injection of the vehicle (saline), drug or drug combination under study, and tail flick latencies were measured and are measured at 45 min after drug or vehicle administration. Baseline tail flick latencies were recorded after saline/vehicle injection. By comparing to baseline (defined as 0% analgesia) and to a failure of pain reaction/tail flick (defined as 100% analgesia) Percentage of analgesia was determined.
Male CD1 Mice were divided in 2 groups, the group receiving s.c. injections of morphine in high doses to develop tolerance (hereinafter called Tolerants), and the group receiving only vehicle (called Non-Tolerants). […]
The mice were placed 45 minutes after injection in the tail-flick apparatus. The Baseline was determined based on saline injection. […]
The subject of test [6] is Male CD1 mice. Kind of test: animal or person. To be noted: Mus musculus, sc.
Experimental: Male CD1 mice aged from 6 to 8 weeks old were used in these studies. Animals were housed in groups of five, provided with food and water ad libitum and kept in controlled laboratory conditions with the temperature maintained at 21±1° C. and light in 12 h cycles (on at 07:00 h and off at 19:00 h). Experiments were carried out in a soundproof and air-regulated experimental room. The number of mice ranged from 8 to 16 per group in each individual experiment.
All the compounds were dissolved in physiological saline and administered in a volume of 5 ml/kg of body weight through the subcutaneous (s.c.) route. When compounds were co-administered, they were injected s.c. opposite flanks of the mice. The doses of drugs refer to their salt forms.
The analgesic activity of the inventive active substance combination is determined in male CD1 following and adapting the description in the publication of G. Woolfe and A. D. MacDonald, J. Pharm.
(§1) The mice were kept on the hot plate for no longer than 450 seconds in order to avoid the development of cutaneous lesions. The vehicle, the active substances and the inventive active substance combination to be tested were administered—sometimes in differing concentrations—by s.c. injection to different groups of mice. 0.5 hours after the administration the animals are put onto the hot plate and the time is measured until they show signs of pain, divided by Fore Paw Licking (FPL), Hind Paw Licking (HPL) and Jumping, to allow conclusions on differentiations of pain types through the different pain symptoms/signs of pain. The analgesic efficacy of the active substances or active substance combination is calculated on the basis of the values obtained for the comparison group of mice to which is only administered the vehicle (baseline). By comparing to baseline (defined as 0% analgesia) and to a failure of pain signs (defined as 100% analgesia) Percentage of analgesia was determined. In some cases based on this calculation and with different concentrations of the active substances or active substance combination ED50 values were determined.
Test [7] deals with Male CD1 mice. As to conditions: day 5, morphine 4 mg/kg alone (vs Non-Tolerant) or + Chemical Example 1 10 mg/kg (vs morphine only).
Experimental: as §1
Male CD1 Mice were divided in 2 groups, the group receiving s.c. injections of morphine in high doses to develop tolerance (hereinafter called Tolerants), and the group receiving only vehicle (called Non-Tolerants). The following treatment scheme was followed:
The mice were placed 30 minutes after injection on the hot plate heated to 50° C. The signs of pain shown were divided by Fore Paw Licking (FPL), Hind Paw Licking (HPL) and Jumping and measured/counted. The Baseline was determined based on saline injection. Significance values were determined vs. respective “non tolerant” group, the “Morphine-tolerant group” or the “Morphine-non tolerant group” with *** p<0.001 vs. respective “non tolerant” group, # # # p<0.001 vs. “Morphine-tolerant group” and α α α p<0.001 vs. “Morphine-non tolerant group” (Newman-Keuls Multiple Comparison Test post-ANOVA).
[8] abbreviates: read-out: 5-HT7 %-Inhib. (10^−6 M).
The mark [9] stands for this setting: read-out: 5-HT7 %-Inhib. (10^−7 M).
Setting [10] is: read-out: 5-HT7 %-Inhib. (10^−8 M).

Counter-ions that a name gives are not always drawn. Like-named read-outs stand apart in the source and are kept apart here.

Results on 17 molecules are retold here after patent US20100197717A1, “COMBINATION OF A 5HT7 RECEPTOR LIGAND AND AN OPIOID RECEPTOR LIGAND” (priority 2007, published 2010).

T1 sequence (P34969 whole entry): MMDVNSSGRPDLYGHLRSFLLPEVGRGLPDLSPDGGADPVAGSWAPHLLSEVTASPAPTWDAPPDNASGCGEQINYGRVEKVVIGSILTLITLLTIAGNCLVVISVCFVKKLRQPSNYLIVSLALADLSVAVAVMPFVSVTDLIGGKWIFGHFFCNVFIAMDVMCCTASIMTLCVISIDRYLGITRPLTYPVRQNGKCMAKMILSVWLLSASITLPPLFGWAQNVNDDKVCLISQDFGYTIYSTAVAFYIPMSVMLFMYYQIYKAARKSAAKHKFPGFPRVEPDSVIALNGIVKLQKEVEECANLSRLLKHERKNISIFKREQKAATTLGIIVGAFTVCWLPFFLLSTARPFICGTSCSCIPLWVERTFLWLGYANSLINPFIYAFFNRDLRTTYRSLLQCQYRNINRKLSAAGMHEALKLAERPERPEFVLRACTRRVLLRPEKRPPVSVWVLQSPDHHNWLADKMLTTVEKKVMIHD
Chain of 5-HT6 (P50406 whole entry, species assumed): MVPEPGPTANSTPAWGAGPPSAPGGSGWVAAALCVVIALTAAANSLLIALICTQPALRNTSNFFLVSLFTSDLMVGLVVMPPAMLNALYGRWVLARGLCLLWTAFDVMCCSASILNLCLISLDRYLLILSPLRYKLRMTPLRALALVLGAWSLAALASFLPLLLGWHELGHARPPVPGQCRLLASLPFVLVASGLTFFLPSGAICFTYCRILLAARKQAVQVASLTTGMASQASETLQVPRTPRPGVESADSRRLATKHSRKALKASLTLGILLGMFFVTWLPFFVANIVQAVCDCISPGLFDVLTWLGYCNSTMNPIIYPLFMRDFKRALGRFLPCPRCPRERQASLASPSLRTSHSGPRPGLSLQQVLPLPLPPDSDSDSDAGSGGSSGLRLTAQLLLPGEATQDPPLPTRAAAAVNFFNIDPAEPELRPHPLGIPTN
Chain of 5HT7 receptor (P34969 whole entry): as the sequence (P34969 whole entry) above

`CCCN(CCC)C1CCc2cccc(O)c2C1` (stereo not shown) [8-OH-DPAT]: the “agonist classification on the 5-HT7 receptor” value in test [1] is “agonist”.

`Cc1nn(C)c(C)c1-c1cccc(CCN(C)C)c1` [Chemical Example 1]: the inhibition at 0.1 µM in test [2] (read-out: % Inh (10^−7 M)) stood at 98.6%; in test [4] it was 5.4%. In test [2] (read-out: % Inh (10^−8 M)), the inhibition at 0.01 µM came to 60.8%. The “effect on efficacy of a low dose of morphine, tail flick” value in test [3] (1.25, 2.5, 5 or 10 mg/kg s.c. + morphine 2 mg/kg (FIG. 9B)) is recorded as “increases in a dose-dependent manner”. In test [3] (1.25, 2.5, 5 or 10 mg/kg s.c. alone (FIG. 9B)), the “analgesic effect per se, tail flick” value was “devoid of effect per se”.

For `CCN(CC)CCc1cccc(-c2c(C)nn(C)c2C)c1` [Chemical Example 3, Diethyl-{2-[3-(1,3,5-trimethyl-1H-pyrazol-4-yl)-phenyl]-ethyl}-amine], in test [2] (read-out: % Inh (10^−6 M)), the inhibition at 1 µM is 98.1%. Moreover, in test [2] (read-out: % Inh (10^−7 M)), the inhibition at 0.1 µM was 41.5%. Also, the inhibition at 0.01 µM in test [2] (read-out: % Inh (10^−8 M)) came out at 4.8%.

In the case of `CCCN(CCC)CCc1cccc(-c2c(C)nn(C)c2C)c1` [Chemical Example 4, Dipropyl-{2-[3-(1,3,5-trimethyl-1H-pyrazol-4-yl)-phenyl]-ethyl}-amine], in test [2] (read-out: % Inh (10^−6 M)), the inhibition at 1 µM was determined as 90%. Moreover, the inhibition at 0.1 µM in test [2] (read-out: % Inh (10^−7 M)) was found to be 98.7%. Further, in test [2] (read-out: % Inh (10^−8 M)), the inhibition at 0.01 µM came to 48.6%.

`Cc1cccc(C)c1-c1cccc(CCN(C)C)c1` [Chemical Example 9, [2-(2′,6′-Dimethyl-biphenyl-3-yl)-ethyl]-dimethyl-amine]: the inhibition at 1 µM in test [2] (read-out: % Inh (10^−6 M)) was 105%. Besides, the inhibition at 0.1 µM in test [2] (read-out: % Inh (10^−7 M)) worked out at 88.9%. For the same molecule, in test [2] (read-out: % Inh (10^−8 M)), the inhibition at 0.01 µM came to 65.9%.

For the molecule `CCN(CC)CCc1cccc(-c2c(C)cccc2C)c1` [Chemical Example 11, [2-(2′,6′-Dimethyl-biphenyl-3-yl)-ethyl]-diethyl-amine], the inhibition at 1 µM in test [2] (read-out: % Inh (10^−6 M)) was found to be 98.2%. The inhibition at 0.1 µM in test [2] (read-out: % Inh (10^−7 M)) worked out at 62.3%. Moreover, the inhibition at 0.01 µM in test [2] (read-out: % Inh (10^−8 M)) was -13.7%.

As to `CCCN(CCC)CCc1cccc(-c2c(C)cccc2C)c1` [Chemical Example 12, [2-(2′,6′-Dimethyl-biphenyl-3-yl)-ethyl]-dipropyl-amine], the inhibition at 1 µM in test [2] (read-out: % Inh (10^−6 M)) amounted to 93.3%. The inhibition at 0.1 µM in test [2] (read-out: % Inh (10^−7 M)) worked out at 92.2%. For the same molecule, the inhibition at 0.01 µM in test [2] (read-out: % Inh (10^−8 M)) is 43.8%.

In the case of `COc1cccc(OC)c1-c1cccc(CCN(C)C)c1` [Chemical Example 13, [2-(2′,6′-Dimethoxy-biphenyl-3-yl)-ethyl]-dimethyl-amine], the inhibition at 1 µM in test [2] (read-out: % Inh (10^−6 M)) came out at 105%. For the same molecule, in test [2] (read-out: % Inh (10^−7 M)), the inhibition at 0.1 µM turned out to be 60.5%. In addition, the inhibition at 0.01 µM in test [2] (read-out: % Inh (10^−8 M)) is 54.4%.

On to `CN(C)CCc1cccc(-c2cnn(C)c2)c1` [Chemical Example 17, Dimethyl-{2-[3-(1-methyl-1H-pyrazol-4-yl)-phenyl]-ethyl}-amine], for which the inhibition at 1 µM in test [2] (read-out: % Inh (10^−6 M)) stood at 46%. For the same molecule, the inhibition at 0.1 µM in test [2] (read-out: % Inh (10^−7 M)) amounted to 16.9%. For the same molecule, the inhibition at 0.01 µM in test [2] (read-out: % Inh (10^−8 M)) is -1%.

For the molecule `COc1ccccc1-c1cccc(CCN(C)C)c1` [Chemical Example 21, [2-(2′-Methoxy-biphenyl-3-yl)-ethyl]-dimethyl-amine], the inhibition at 1 µM in test [2] (read-out: % Inh (10^−6 M)) is 95.4%. Besides, in test [2] (read-out: % Inh (10^−7 M)), the inhibition at 0.1 µM was found to be 69.2%. Also, the inhibition at 0.01 µM in test [2] (read-out: % Inh (10^−8 M)) is 20%.

As to `CCCN(CCC)CCc1cccc(-c2ccccc2OC)c1` [Chemical Example 24, [2-(2′-Methoxy-biphenyl-3-yl)-ethyl]-dipropyl-amine], the inhibition at 1 µM in test [2] (read-out: % Inh (10^−6 M)) came out at 92.4%. The inhibition at 0.1 µM in test [2] (read-out: % Inh (10^−7 M)) turned out to be 37.8%. In addition, the inhibition at 0.01 µM in test [2] (read-out: % Inh (10^−8 M)) is -1.8%.

Regarding `Cc1nn(C)c(C)c1-c1cccc2c1CC[C@H](N(C)Cc1ccccc1)C2` [Chemical Example F, (2S)-Benzyl-methyl-[5-(1,3,5-trimethyl-1H-pyrazol-4-yl)-1,2,3,4-tetrahydro-naphthalen-2-yl]-amine], in test [2] (setting [8]), the inhibition at 1 µM turned out to be 110%. For the same molecule, the inhibition at 0.1 µM in test [2] (setting [9]) turned out to be 44.7%. Also, in test [2] (setting [10]), the inhibition at 0.01 µM was found to be 16.3%.

Molecule `CN[C@H]1CCc2c(cccc2-c2c(C)nn(C)c2C)C1` [Chemical Example H, (2S)-Methyl-[5-(1,3,5-trimethyl-1H-pyrazol-4-yl)-1,2,3,4-tetrahydro-naphthalen-2-yl]-amine hydrochloride] returned a half-inhibitory concentration (IC50) in test [2] of 2.3 nM. Besides, the inhibition at 1 µM in test [2] (setting [8]) stood at 98.1%. Also, in test [2] (setting [9]), the inhibition at 0.1 µM is 97.8%. The inhibition at 0.01 µM in test [2] (setting [10]) is 86.1%.

`Cc1nn(C)c(C)c1-c1cccc2c1CC[C@@H](N(C)C)C2` [Chemical Example J, (2R)-Dimethyl-[5-(1,3,5-trimethyl-1H-pyrazol-4-yl)-1,2,3,4-tetrahydro-naphthalen-2-yl]-amine hydrochloride]: the inhibition at 1 µM in test [2] (setting [8]) is 59.6%. Moreover, the inhibition at 0.1 µM in test [2] (setting [9]) worked out at 9.6%. Further, the inhibition at 0.01 µM in test [2] (setting [10]) was -1.8%.

Turning to `Cc1nn(C)c(C)c1-c1cccc2c1CCC(N(C)C)C2` (stereo not shown) [Chemical Example K, Dimethyl-[5-(1,3,5-trimethyl-1H-pyrazol-4-yl)-1,2,3,4-tetrahydro-naphthalen-2-yl]-amine], in test [2], the concentration for half-maximal inhibition (IC50) is 3.9 nM. In test [2] (setting [9]), the inhibition at 0.1 µM worked out at 91.3%. Besides, the inhibition at 0.01 µM in test [2] (setting [10]) is 38.8%.

For the molecule `Cc1cccc(S(=O)(=O)N(C)[C@H](C)CCN2CCC(C)CC2)c1.Cl` [SB-258719, (R)-3,N-Dimethyl-N-(1-methyl-3-(4-methylpiperidin-1-yl)propyl)benzene sulfonamide hydrochloride], in test [3] (SB-258719 10 mg/kg + varying doses of morphine s.c.), the “change in the morphine effect, tail flick” value was “did not produce any significant change”. The “effect on potenciation of morphine analgesia exerted by Chemical Example 1, tail flick” value in test [3] (morphine 2 mg/kg + Chemical Example 1 10 mg/kg + SB-258719 10 mg/kg s.c. (FIG. 9C)) is given as “reverted”.

For `CN1CC[C@]23c4c5ccc(O)c4O[C@H]2[C@@H](O)C=C[C@H]3[C@H]1C5` [morphine], the “analgesic effect, tail flick, Tolerant group” value in test [5] is on record as “significantly reduced”. The ED50 turned out to be 24 mg/kg in test [6] (read-out: ED50, Fore Paw Licking (FPL)); 9.28 mg/kg in test [6] (read-out: ED50, Hind Paw Licking (HPL)); 3.19 mg/kg in test [6] (read-out: ED50, Jumping). In test [7] (FIG. 10A), the “analgesic effect, FPL, Tolerant group” value is “reduced”. Besides, the “analgesic effect, HPL, Tolerant group” value in test [7] (FIG. 10B) is reported as “reduced”. For the same molecule, the “analgesic effect, Jump, Tolerant group” value in test [7] (FIG. 11) is recorded as “reduced”.
